Experiment [1] deals with E. coli BW25113 Δ3. The experiment can be described thus: Spot-on-lawn MIC bioassay, TBDT knock-out mutant. To be noted: for MIC: Escherichia coli. In kind it is cell-based. How it is done:
(§1) Indicator strains were grown for 16–18 h in LB (5 mL) by inoculation from a single colony. An aliquot of the resulting culture (500 μL) was then used to inoculate LB (50 mL in 250 mL Erlenmeyer flasks), followed by orbital shaking at 250 rpm until they reached an OD600 of 0.3–0.4. These cultures were then diluted 1 : 10 with molten soft nutrient agar (SNA), before pouring into appropriately sized Petri dishes to set. Serial dilutions of the test compounds (from 256 μg mL^−1 to 1 μg mL^−1 plus an additional sample at 1000 μg mL^−1) were prepared in acetonitrile (ACN), and 4 μL of each sample was applied directly onto the SNA surface. Kanamycin (50 μg mL^−1), apramycin (50 μg mL^−1) or aureobasidin A (0.2 μg mL^−1) were used as positive controls, as appropriate, and ACN or water (4 μL) were used as negative controls. […] Experiments were carried out in at least triplicate for each strain.
(§2) The method was the same as for the antibacterial MIC assays described above, with the following modifications: for excess iron, Fe(NO3)3·9H2O stock (400 mM) was added to give a final concentration of 1.5 or 2.0 mM; for iron depletion, bipy stock (1 M) was added to give a final concentration of 150 μM. For MRSA, 1 was further diluted to 0.5 0.25 and 0.125 μg mL^−1 due to a decrease in MIC under excess iron conditions. The general effect of excess iron on the activity of alternative antibiotics was determined by performing a similar serial dilution of carbenicillin, kanamycin, streptomycin, nitrofurantoin and chloramphenicol in the presence of Fe^3+.

For experiment [2], the system named is MRSA. In words: Spot-on-lawn MIC bioassay. In kind it is cell-based, Methicillin-resistant Staphylococcus aureus. The conditions noted are these: for MIC: Staphylococcus aureus, MRSA, read-out: MIC. As for the experimental part:
as §1, §2

The test system of experiment [3] is E. coli 25922. In words: Spot-on-lawn MIC bioassay. In kind it is cell-based, E. coli ATCC 25922. As for the experimental part: as §1, §2
Experiment [4] concerns the target PfThrRS (Pseudomonas fluorescens, UniProt C3JZN7). The experiment can be described thus: Aminoacylation assay. Format: biochemical, P. fluorescens. The conditions noted are these: enzyme 10 nM; read-out: concentration of full inhibition. How it is done:
(§3) To measure the effects of 1–4 on ThrRS canonical tRNA charging activity, an assay modified from that reported by Ruan et al.[53] was used, where active enzyme was incubated with its necessary substrates and its activity measured using ^14C labeled Thr and a liquid scintillation counter. Purified ThrRS protein (10 nM) was pre-incubated with varying concentrations of compounds 1–4 or ACN for 10 min. After pre-incubation, ThrRS samples were added to a master reaction mixture with the final component concentrations of HEPES (100 mM, pH 7.0), ATP (4 mM), MgCl2 (10 mM), L-[U-^14C]threonine (50 μM, Moravek Inc.), and tRNA^Thr (5 μM). This mixture was incubated at room temperature for 10 min, with samples taken at 1, 2.5, 5, and 10 min. At each time point, a 7 μL aliquot was spotted onto a 5% trichloroacetic acid (TCA) presoaked 3 MM Whatman paper (Cytiva) squares (repeated in triplicate). After allowing the spots to dry, the Whatman paper was washed three times with 5% TCA, and once with 95% EtOH. The Whatman paper was dried and the counts on each square of paper analyzed using a Tri-Carb 2910 TR liquid scintillation counter using Hydrofluor Liquid Scintillation Fluid (National Diagnostics). To calculate IC50 values, fractional initial velocities (velocity of inhibited reaction/velocity in the absence of inhibitor) were plotted against the log of 1 concentration and then fitted to eqn (1), using GraphPad Prism.1 [drawing 1]

Experiment [5] has as its system ObaO. The experiment can be described thus: Aminoacylation assay. In kind it is biochemical, P. fluorescens. As for the experimental part:
as §3

Where [6] appears, read: with vs without Fe^3+ in growth agar.

Experimental findings from article PMC10619133, “The catechol moiety of obafluorin is essential for antibacterial activity” (RSC Chemical Biology, 2023) are described below.

Each structure is given as a SMILES string. ≈ marks a conversion by molar mass, not a printed value. Entries after “also recorded” stand apart in the source; their conditions may differ. Like-named read-outs stand apart in the source and are kept apart here.

Usually MIC stands for the least concentration at which growth counts as inhibited.

PfThrRS, sequence (C3JZN7 whole entry): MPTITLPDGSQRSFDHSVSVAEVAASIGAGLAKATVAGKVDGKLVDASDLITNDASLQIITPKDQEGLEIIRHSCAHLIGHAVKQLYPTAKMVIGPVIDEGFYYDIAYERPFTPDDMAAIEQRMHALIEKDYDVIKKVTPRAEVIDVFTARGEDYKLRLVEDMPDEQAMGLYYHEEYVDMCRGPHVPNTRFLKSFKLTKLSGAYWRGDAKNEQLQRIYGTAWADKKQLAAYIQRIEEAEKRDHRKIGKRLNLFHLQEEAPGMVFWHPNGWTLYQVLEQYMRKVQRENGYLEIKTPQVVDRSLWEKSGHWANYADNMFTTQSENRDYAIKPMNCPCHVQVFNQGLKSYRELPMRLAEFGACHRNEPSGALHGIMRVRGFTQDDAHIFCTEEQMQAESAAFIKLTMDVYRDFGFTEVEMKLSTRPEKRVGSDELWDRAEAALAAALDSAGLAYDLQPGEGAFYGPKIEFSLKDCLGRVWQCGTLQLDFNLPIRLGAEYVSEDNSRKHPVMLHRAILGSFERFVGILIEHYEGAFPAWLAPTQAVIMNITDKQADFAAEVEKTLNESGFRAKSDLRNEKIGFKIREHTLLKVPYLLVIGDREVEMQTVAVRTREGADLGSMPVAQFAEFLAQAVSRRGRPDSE

On to `O=C(N[C@@H]1C(=O)O[C@@H]1Cc1ccc([N+](=O)[O-])cc1)c1cccc(O)c1O` [compound 1, Obafluorin], for which the MIC in experiment [1] (BW25113, iron depleted, +bipy (150 μM)) is 256 µg/mL (≈ 714 µM); in experiment [1] (BW25113, iron replete, +Fe^3+ (2 mM)), not above 1 µg/mL; in experiment [1] (BW25113, standard conditions), 256 µg/mL (≈ 714 µM); in experiment [2] (+Fe^3+ (2 mM) in the media) it was 0.25 µg/mL (≈ 0.698 µM); in experiment [2] (spot-on-lawn, standard conditions), 2 µg/mL (≈ 5.58 µM); in experiment [3] (Escherichia coli, 25922, iron depleted, +bipy (150 μM)) it was 256 µg/mL (≈ 714 µM). The minimal inhibitory concentration (MIC) is not above 1 µg/mL in experiment [3] (Escherichia coli, 25922, +Fe^3+ (2 mM) in the media, read-out: MIC) and 256 µg/mL (≈ 714 µM) in experiment [3] (Escherichia coli, 25922, spot-on-lawn, standard conditions). Also, the “decrease in MIC upon addition of Fe^3+” value in experiment [1] (with vs without Fe^3+) is recorded as not below 256 fold. Also, the “decrease in MIC with added Fe^3+” value was 8 fold in experiment [2] (setting [6]) and not below 256 fold in experiment [3] (setting [6]). Also, in experiment [4], the IC100 is 0.01 µM. Also, in experiment [5] (0–5 μM (up to 5000 nM)), the “inhibition of aminoacylation (in words)” value is “no observable inhibition; also recorded: no significant inhibition”. Moreover, the IC50 entry in experiment [5] (enzyme 10 nM, 10 min preincubation, 0–5 μM compound) was “not inhibited; also recorded: No inhibition”.
